Entries after “also recorded” stand apart in the source; their conditions may differ. Marks after values point to notes of the source that are not given here.
Columns and labels:
CYP3A4 = target: T1, CYP3A4 (Homo sapiens, UniProt P08684); test: Metabolic stability (substrate depletion) with CYP3A4; type: in vitro ADME; details: for elimination rate constant k by CYP3A4 / half-life at 1 μM: 1 μM substrate, CYP3A4 10 pmol/mL; for CLint (CYP3A4): PBPK parameter, in vitro data obtained; for half-life at 1 μM: human, CYP3A4 enzyme, pH 7.4, read-out: T1/2 by CYP3A4; for Intrinsic clearance, CLint CYP3A4: substrate depletion
T1 construct: purchased BD Gentest (Woburn, Mass.)
Protocol: (§1) The metabolic stability experiments were performed to derive intrinsic clearance (CLint) values via the substrate depletion method. […] NADPH A was subsequently added to initiate the reaction. […] The reaction mixtures were incubated at 37° C. with gentle agitation. At the respective time points (0-60 min), 80 μL of the reaction mixture was quenched using an equal volume of ice-cold ACN with 1 μM tamoxifen as internal standard (IS). The samples were then centrifuged at 3220 g at 4° C. for 30 min before transferring the supernatant to a 96-well plate for liquid chromatography-tandem mass spectrometry (LC-MS/MS) analysis.
(§2) The mean of triplicate peak area ratios for each compound was normalized to that of the same compound at the 0 min time point to obtain the percentage of substrate remaining at each time point. This was plotted against incubation time for each compound and the data was then fitted to a one-phase decay model using GraphPad Prism software (version 8.02; GraphPad Inc., San Diego, Calif.) to obtain an estimation for the elimination rate constant (k). CLint was then calculated based on equation 3:
(§3) In equation 3, k=elimination rate constant (min^−1); V=volume of incubation mixture (mL); P=amount of protein in mixture (mg).

CYP2J2 [1] = target: T2, CYP2J2 (Homo sapiens, UniProt P51589); test: Inhibition of CYP2J2-mediated astemizole metabolism in hiPSC-CM; type: cell-based; set-up: endogenous in cells; host or cells: hiPSC-CM (from human foreskin fibroblasts); details: 2 μM drug co-incubated with 1 μM astemizole
T2 sequence (P51589 1-502): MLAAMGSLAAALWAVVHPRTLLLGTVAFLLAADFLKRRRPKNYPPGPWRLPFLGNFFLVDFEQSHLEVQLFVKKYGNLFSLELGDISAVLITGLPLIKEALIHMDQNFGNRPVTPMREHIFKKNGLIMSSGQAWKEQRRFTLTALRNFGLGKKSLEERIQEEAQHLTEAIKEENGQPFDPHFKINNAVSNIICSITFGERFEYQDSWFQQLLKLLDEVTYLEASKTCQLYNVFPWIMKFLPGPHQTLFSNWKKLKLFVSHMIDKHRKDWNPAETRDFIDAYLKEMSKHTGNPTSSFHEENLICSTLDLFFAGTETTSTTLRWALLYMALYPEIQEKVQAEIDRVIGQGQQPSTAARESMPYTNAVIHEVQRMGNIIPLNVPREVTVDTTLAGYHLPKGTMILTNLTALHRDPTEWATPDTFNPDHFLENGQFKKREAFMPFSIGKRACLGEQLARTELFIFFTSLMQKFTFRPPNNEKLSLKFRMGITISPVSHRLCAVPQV
Protocol: HiPSC-CM were seeded at a density 100,000 cell/well in a 12-well plate and differentiated for 30 days. […] The cells were then washed with 1×PBS twice and dislodged using Accutase® cell detachment solution. The cells were then pelleted at 2000 g for 10 min at 4° C. The supernatant was discarded and the pellets were resuspended in 100 μL of ice-cold ACN with 0.1 μM buspirone as an internal standard. The cells were sonicated for 15 min on ice to bring about complete cell lysis. The lysate was centrifuged at 10,000×g for 15 min at 4° C. The supernatant was collected and analyzed using LC/MS/MS.
The LC/MS/MS system consisted of an Agilent 1290 Infinity ultra-high pressure liquid chromatography (UPLC) system (Agilent Technologies Inc., Santa Clara, Calif.) interfaced with the AB SCIEX QTRAP® 5500 tandem mass spectrometry (MS/MS) system (AB SCIEX, Framingham, Mass.). The LC/MS/MS system was controlled by Analyst 1.4.2 software (Applied Biosystems) which performed all chromatographic peak integration. The ACQUITY UPLC BEH C18 column, 1.7 μM, 2.1×50 mm (Waters, Milford, Mass.), was used to achieve chromatographic separation. The temperatures of the column and samples were maintained at 45° C. and 4° C. respectively. The mobile phases were 0.2% acetic acid in 5 mM ammonium acetate (solvent A) and 0.2% acetic acid in ACN (solvent B). They were delivered at a flow rate of 0.6 mL/min. […]

hiPSC-CM [2] = test: Extracellular field potential duration (FPD), multi electrode array; type: cell-based, human; details: MEA, 0-10 μM
Protocol: Electrophysiological perturbations of hiPSC-CM were measured using multi electrode array (MEA) recording system (Multichannel Systems, Reutlingen, Germany). […] FPD measurements were normalized (corrected FPD [cFPD]) to the beating rate of the contracting areas with the Bazzet correction formula: cFPD=FPD/√(RR interval) as described previously^3. One-phase decay algorithm was used to plot corrected FPD curves.

CYP2J2 [3] = target: T2, CYP2J2; set-up: endogenous in cells; host or cells: hiPSC-CM (from human foreskin fibroblasts); details: PBPK parameter; read-out: Reversible inhibition Ki CYP2J2; cited from earlier work
hiPSC-CM [4] = test: Beat-to-beat variability (BBV), Poincaré plots; type: cell-based, human; details: 10 nM
Description: The BBV calculations were done using Kubios HRV2.2 (Department of Applied Physics, University of Eastern Finland, Kuopio, Finland)^4. BBV is visualised as scatterplots known as Poincaré plots. In these plots, each time interval between two successive beats [inter-beat interval (RRn)] is plotted against the subsequent interval (RRn+1). Poincaré plot descriptors SD1 and SD2 define the extent of variability. SD1 represents a measure for short-term variability, whereas SD2 describes long-term variability^5.

CYP2J2 [5] = target: T2, CYP2J2; test: Time- and concentration-dependent inactivation (MBI) of CYP2J2, rivaroxaban as probe substrate; type: biochemical; set-up: purchased BD Gentest (Woburn, Mass.)
Protocol: Incubations were conducted in triplicates in 96-well plates. Primary incubation mixtures comprising various concentrations of inhibitor (0-20 μM) were pre-incubated at 37° C. for 3 min with CYP450 enzymes (20 pmol/m L) and NADPH B in potassium phosphate buffer (100 mM, pH 7.4). To initiate the enzymatic reaction, 5 μL NADPH A was added to the primary incubation. The final primary incubation mixture volume was 100 μL and contained <1% v/v organic solvent. At different pre-incubation time points (3, 8, 15, 22, 30, and 45 min) after the addition of NADPH A, 5 μL aliquots of the primary incubation were transferred to 95 μL of the secondary incubation containing 50 μM rivaroxaban, the NADPH A and B, and potassium phosphate buffer (100 mM, pH 7.4) to yield a 20-fold dilution. The secondary incubation mixtures were incubated at 37° C. for 30 min with CYP2J2, before 80 μL aliquots were removed and quenched with an equal volume of ice-cold ACN containing 4 μM dexamethasone as IS. The samples were then centrifuged at 3220 g at 4° C. for 30 min before transferring the supernatant to a 96-well plate for liquid chromatography-tandem mass spectrometry (LC-MS/MS) analysis. The main rivaroxaban metabolite, morpholinone hydroxylated metabolite, was quantified using LC-MS/MS analysis.
The mean of triplicate peak area ratios for each concentration and pre-incubation time was normalized to that of 0 μM with the same pre-incubation time. The amount of rivaroxaban metabolite formed during the secondary incubation, a measure of the probe substrate activity remaining, was computed and the natural logarithm of this measure was plotted against inactivation pre-incubation time for each inactivator concentration. […]
In equation 1, kinact=maximum inactivation rate constant at infinite inactivator concentration (in min^−1); KI=concentration of inactivator at the half-maximal rate constant of inactivation (in μM); [I]=in vitro inactivator concentration (in μM). MBI potency (kinact/KI ratio, μM-1·min-1) against human recombinant CYP2J2 is determined for each compound. […]

[6] = Metabolic stability (substrate depletion) with HLM; type: in vitro ADME, human; details: for elimination rate constant k by HLM / half-life at 1 μM: 1 μM substrate, HLM 0.5 mg/mL; for half-life at 1 μM / microsomal CLint at 1 μM: human, pooled human liver microsomes, pH 7.4; for half-life at 1 μM: read-out: T1/2 by HLM; for microsomal CLint at 1 μM: substrate depletion, read-out: Intrinsic clearance, CLint HLM
Protocol: as §1, §2, §3

T1 sequence (P08684 whole entry): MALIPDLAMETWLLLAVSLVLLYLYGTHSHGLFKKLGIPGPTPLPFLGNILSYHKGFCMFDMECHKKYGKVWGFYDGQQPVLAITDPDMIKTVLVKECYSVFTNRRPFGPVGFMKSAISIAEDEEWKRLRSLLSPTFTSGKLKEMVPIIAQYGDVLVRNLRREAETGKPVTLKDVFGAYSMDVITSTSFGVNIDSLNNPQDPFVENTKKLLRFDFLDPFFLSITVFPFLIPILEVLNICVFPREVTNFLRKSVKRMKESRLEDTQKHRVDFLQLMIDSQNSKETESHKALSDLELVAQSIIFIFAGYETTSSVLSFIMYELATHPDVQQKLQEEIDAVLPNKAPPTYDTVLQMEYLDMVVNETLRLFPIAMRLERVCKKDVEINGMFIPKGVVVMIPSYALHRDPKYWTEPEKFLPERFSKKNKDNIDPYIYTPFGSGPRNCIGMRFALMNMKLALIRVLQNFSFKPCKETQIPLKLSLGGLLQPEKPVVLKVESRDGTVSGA

SMILES	elimination rate constant k by CYP3A4 (CYP3A4)	CLint (CYP3A4) (CYP3A4)	half-life at 1 μM (CYP3A4)	Intrinsic clearance, CLint CYP3A4 (CYP3A4)	Intrinsic clearance, CLint CYP3A4 (CYP3A4; listed as dronedarone)	inhibition of CYP2J2 in hiPSC-CM (CYP2J2 [1]; 24 h)	effect on extracellular field potential duration (FPD) (hiPSC-CM [2])	Ki (CYP2J2 [3])	beat-to-beat variability (BBV), inter-beat intervals in Poincaré plot (hiPSC-CM [4])	inactivation (MBI) of CYP2J2, in words (CYP2J2 [5])	elimination rate constant k by HLM [6]	half-life at 1 μM [6]	microsomal CLint at 1 μM [6]	inhibition at 24 h, 2 μM (CYP2J2 [1]; human, hiPSC-derived cardiomyocytes (hiPSC-CM), probe astemizole (1 μM))
CCCCc1oc2ccc(NS(C)(=O)=O)cc2c1C(=O)c1ccc(OCCCN(CCCC)CCCC)cc1.Cl [Dronedarone]	0.04144 min⁻¹	114.739* μL/min/mg microsomal protein	16.7 min	8.29 µL/min/pmol	8.288 µL/min/pmol	98%	Dose-dependent increase in the FPD	930 nM	do not cluster at the centroid of the ellipse and diffuse across the plot	demonstrated inactivation of CYP2J2	0.06446 min⁻¹	10.8 min	129 µL/min/mg	
Cl.[2H]c1c(NS(C)(=O)=O)c([2H])c2c(C(=O)c3ccc(OCCCN(CCCC)CCCC)cc3)c(CCCC)oc2c1[2H] [Poyendarone, Methanesulfonamide, N-(2-butyl-3-(4-(3-(dibutylamino)propoxy)benzoyl)-1-benzo(4,6,7-d3)-furan-5-yl)hydrochloride]	0.0918 min⁻¹	115.2016* μL/min/mg microsomal protein	7.55 min	9.18 µL/min/pmol			Dose-dependent increase in the FPD	930 nM	least variability among the beats; also recorded: lack of beat-to-beat variability (BBV)	does not cause MBI of CYP2J2	0.06472 min⁻¹	10.7 min	129 µL/min/mg	50%
